In experiment [1] the test system is HeLa. Description: Cytotoxicity against human HeLa cells after 48 hrs by MTT assay. The class given is functional, cell-based. In general terms: Tetrazolium assays rely on reduction of a dye to a coloured formazan, in cell work by metabolically active cells.
Experiment [2] in a line: Cytotoxicity against human RKO-AS45-1 cells after 48 hrs by MTT assay. It counts as functional, cell-based. Particulars: RKOAS451, 48 h.
The nature of experiment [3]: Cytotoxicity against human WI-26 VA4 cells after 48 hrs by MTT assay. It counts as cell-based. The settings on record: WI26VA4, 48 h.
For experiment [4], the system named is HeLa. In words: Selectivity index, ratio of IC50 for human WI-26 VA4 cells to IC50 for human HeLa cells. The class given is functional.
Experiment [5] in a line: Selectivity index, ratio of IC50 for human WI-26 VA4 cells to IC50 for human RKO-AS45-1 cells. The class given is functional.
The target of experiment [6] is T1, Sodium/potassium-transporting ATPase subunit alpha-1 (Homo sapiens, UniProt P05023). In words: Inhibition of human kidney Na(+)/K(+) ATPase alpha-1 assessed as amount of Pi release after 1 hr by colorimetric method.
Experiment [7] addresses Sodium/potassium-transporting ATPase subunit alpha-2/alpha-3 (Rattus norvegicus, UniProt P06686+P06687). Description: Inhibition of Wistar rat brain Na(+)/K(+) ATPase alpha-2/3 assessed as amount of Pi release after 1 hr by colorimetric method.
In experiment [8] the target is T2, Sodium/potassium-transporting ATPase (Homo sapiens) (UniProt P05023+P14415+P05026+P50993+P54709+P13637+Q13733+P54710). Description: Inhibition of Na(+)/K(+) ATPase in human HeLa cells at 10 uM after 24 hrs by immunoblotting. The class given is cell-based. In general terms: Immunoblotting shows a protein as a band on a membrane.
Experiment [9] relates to HeLa. Description: Inhibition of Na(+)/K(+) ATPase alpha-1 expression in human HeLa cells at 150 nM after 24 hrs by immunoblotting. It counts as functional, cell-based.
Experiment [10] has as its system HeLa. Description: Inhibition of Na(+)/K(+) ATPase alpha-1 expression in human HeLa cells at 10 uM after 24 hrs by immunoblotting. The class given is functional, cell-based.
The target in experiment [11] is T2, Sodium/potassium-transporting ATPase (Homo sapiens). Particulars: HeLa, 150 nM.
Description: Inhibition of Na(+)/K(+) ATPase in human HeLa cells at 150 nM after 24 hrs by immunoblotting
The target in experiment [12] is T1, Sodium/potassium-transporting ATPase subunit alpha-1. Description: Inhibition of human kidney Na(+)/K(+) ATPase alpha-1 assessed as amount of Pi release at 10 uM after 1 hr by colorimetric method.
Experiment [13] addresses Sodium/potassium-transporting ATPase subunit alpha-2/alpha-3 (Rattus norvegicus) (UniProt P06686+P06687). In words: Inhibition of Wistar rat brain Na(+)/K(+) ATPase alpha-2/3 assessed as amount of Pi release at 10 uM after 1 hr by colorimetric method.

Structures are written as SMILES. The source made the active and inactive calls. The calls are words filed in the database; no cut-off is given here.

For the compound `C[C@H]1O[C@@H](O[C@H]2[C@@H](O)C[C@H](O[C@H]3[C@@H](O)C[C@H](O[C@H]4CC[C@@]5(C)[C@H](CC[C@@H]6[C@@H]5C[C@@H](O)[C@]5(C)[C@@H](C7=CC(=O)O/C7=C\c7ccc(N(C)C)cc7)CC[C@]65O)C4)O[C@@H]3C)O[C@@H]2C)C[C@H](O)[C@@H]1O`, the IC50 (commonly the concentration needed to halve the response being measured) was 0.26 µM in the experiment on HeLa [1]; 0.48 µM in experiment [2]; 0.65 µM in [3]; 9.8 µM in experiment [6]; 20 µM in experiment [7]. Besides, the figures for the “Ratio IC50” value (in the experiment with HeLa [4]; in experiment [5]) were 2.5 and 1.35, respectively. The inhibition result in [8] and in experiment [11] was “Active” in each case. For the same compound, the inhibition result in the experiment on HeLa [9] and in the experiment with HeLa [10] was “inactive” each time.
In the case of `C[C@H]1O[C@@H](O[C@H]2[C@@H](O)C[C@H](O[C@H]3[C@@H](O)C[C@H](O[C@H]4CC[C@@]5(C)[C@H](CC[C@@H]6[C@@H]5C[C@@H](O)[C@]5(C)[C@@H](C7=CC(=O)O/C7=C\c7cccc(Cl)c7Cl)CC[C@]65O)C4)O[C@@H]3C)O[C@@H]2C)C[C@H](O)[C@@H]1O`, the IC50 in the experiment on HeLa [1] was 42.5 µM; in experiment [2], 19 µM; in experiment [3], 15.5 µM; in experiment [7], 18 µM. For the same compound, the “Ratio IC50” value came to 0.36 in the experiment with HeLa [4] and 0.81 in experiment [5]. The inhibition entry in [8] is “inactive”.
For the compound `C[C@H]1O[C@@H](O[C@H]2[C@@H](O)C[C@H](O[C@H]3[C@@H](O)C[C@H](O[C@H]4CC[C@@]5(C)[C@H](CC[C@@H]6[C@@H]5C[C@@H](O)[C@]5(C)[C@@H](C7=CC(=O)O/C7=C\c7ccc(F)cc7)CC[C@]65O)C4)O[C@@H]3C)O[C@@H]2C)C[C@H](O)[C@@H]1O`, the IC50 in the experiment on HeLa [1] was 60.9 µM; in experiment [2] it was 41.4 µM; in experiment [3], 54.1 µM; in experiment [6], 0.34 µM; in [7] it was 0.66 µM. Besides, the results for the “Ratio IC50” value (in the experiment on HeLa [4]; in experiment [5]) were 0.89 and 1.31, respectively. In addition, the inhibition entry in experiment [8] is “inactive”.
The compound `C[C@H]1O[C@@H](O[C@H]2[C@@H](O)C[C@H](O[C@H]3[C@@H](O)C[C@H](O[C@H]4CC[C@@]5(C)[C@H](CC[C@@H]6[C@@H]5C[C@@H](O)[C@]5(C)[C@@H](C7=CC(=O)OC7)CC[C@]65O)C4)O[C@@H]3C)O[C@@H]2C)C[C@H](O)[C@@H]1O` [DIGOXIN] registered an IC50 in experiment [2] of 0.42 µM. For the same compound, in the experiment with HeLa [9], the inhibition entry was “inactive”. Besides, the inhibition entry in experiment [11] is “Active”.
Turning to `COc1ccc(/C=C2\OC(=O)C=C2[C@H]2CC[C@]3(O)[C@@H]4CC[C@@H]5C[C@@H](O[C@H]6C[C@H](O)[C@H](O[C@H]7C[C@H](O)[C@H](O[C@H]8C[C@H](O)[C@H](O)[C@@H](C)O8)[C@@H](C)O7)[C@@H](C)O6)CC[C@]5(C)[C@H]4C[C@@H](O)[C@]23C)cc1`, the IC50 in the experiment with HeLa [1] is 61.4 µM; in experiment [2] it was 79 µM; in experiment [3], 78.3 µM; in experiment [6], 0.57 µM; in [7] it was 0.46 µM. The “Ratio IC50” value in the experiment on HeLa [4] was determined as 1.27; in [5], 0.99. For the same compound, the inhibition entry in experiment [8] is “inactive”.
As for `C[C@H]1O[C@@H](O[C@H]2[C@@H](O)C[C@H](O[C@H]3[C@@H](O)C[C@H](O[C@H]4CC[C@@]5(C)[C@H](CC[C@@H]6[C@@H]5C[C@@H](O)[C@]5(C)[C@@H](C7=CC(=O)O/C7=C\c7ccc(Cl)cc7)CC[C@]65O)C4)O[C@@H]3C)O[C@@H]2C)C[C@H](O)[C@@H]1O`, the IC50 in the experiment on HeLa [1] is 40.1 µM; in experiment [2], 23.8 µM; in experiment [3], 28.7 µM. Moreover, the “Ratio IC50” value in the experiment on HeLa [4] is recorded as 0.72; in experiment [5], 1.21. Besides, the inhibition result in experiment [12], in experiment [13] and in experiment [8] was “inactive” throughout.
Regarding `C[C@H]1O[C@@H](O[C@H]2[C@@H](O)C[C@H](O[C@H]3[C@@H](O)C[C@H](O[C@H]4CC[C@@]5(C)[C@H](CC[C@@H]6[C@@H]5C[C@@H](O)[C@]5(C)[C@@H](C7=CC(=O)O/C7=C\c7cccc([N+](=O)[O-])c7)CC[C@]65O)C4)O[C@@H]3C)O[C@@H]2C)C[C@H](O)[C@@H]1O`, the IC50 with HeLa [1] stood at 65.2 µM; in experiment [2] it was 41.3 µM; in [3] it was 44.1 µM; in experiment [6], 11 µM; in experiment [7], 4 µM. The “Ratio IC50” value in the experiment on HeLa [4] is 0.68; in [5], 1.07. For the same compound, the inhibition result in [8] is “inactive”.

These data come from ChEMBL document CHEMBL3593198 (Bioorg Med Chem, 2015).
